tested on: rabbit skeletal myofibrils (approximately 90% fast fibers); assay: Activation of fast skeletal myofibrils (PUMA coupled-enzyme ATPase assay at pCa25); type: biochemical; details: concentration at which the compound increased the enzymatic activity by 40%; calcium at pCa25; PM12 buffer pH 6.8
Summary of the method: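 In pH 6.8 PM12 buffer (12 mM Pipes, 2 mM MgCl2, 1 mM DTT), ADP from myosin regenerated via pyruvate kinase/lactate dehydrogenase, with absorbance change at 340 nm from NADH oxidation as read-out. Calcium set at pCa25; Triton-washed rabbit skeletal myofibrils (about 90% fast fibres) used.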

Compound | Mean AC1.4
O=C(Nc1ccc(F)cc1)c1cnc(NCC2(c3ncccc3F)CCC2)nc1 [[2-({[(3-fluoro(2-pyridyl))cyclobutyl]methyl}amino)pyrimidin-5-yl]-N-(4-fluorophenyl)carboxamide] | D (D=>20 uM)
O=C(Nc1ccncc1)c1cnc(NCC2(c3ncccc3F)CCC2)nc1 [[2-({[(3-fluoro(2-pyridyl))cyclobutyl]methyl}amino)pyrimidin-5-yl]-N-(4-pyridyl)carboxamide] | B (B=1-10 uM)
COc1ccc(NC(=O)c2cnc(NCC3(c4ncccc4F)CCC3)nc2)cn1 [[2-({[(3-fluoro(2-pyridyl))cyclobutyl]methyl}amino)pyrimidin-5-yl]-N-(6-methoxy(3-pyridyl))carboxamide] | D (D=>20 uM)
CS(=O)(=O)NCCNC(=O)c1cnc(NCC2(c3ncccc3F)CCC2)nc1 [[2-({[(3-fluoro(2-pyridyl))cyclobutyl]methyl}amino)pyrimidin-5-yl]-N-[(methylsulfonyl)amino]ethyl} carboxamide] | D (D=>20 uM)
O=C(Nc1ccccc1)c1cnc(NCC2(c3ncccc3F)CCC2)nc1 [[2-({[(3-fluoro(2-pyridyl))cyclobutyl]methyl}amino)pyrimidin-5-yl]-N-benzamide] | C (C=10-20 uM)
O=C(Nc1ccon1)c1cnc(NCC2(c3ncccc3F)CCC2)nc1 [[2-({[(3-fluoro(2-pyridyl))cyclobutyl]methyl}amino)pyrimidin-5-yl]-N-isoxazol-3-ylcarboxamide] | B (B=1-10 uM)
CNC(=O)c1cnc(NCC2(c3ncccc3F)CCC2)nc1 [[2-({[(3-fluoro(2-pyridyl))cyclobutyl]methyl}amino)pyrimidin-5-yl]-N-methylcarboxamide] | D (D=>20 uM)
O=C(Nc1ccn[nH]1)c1cnc(NCC2(c3ncccc3F)CCC2)nc1 [[2-({[(3-fluoro(2-pyridyl))cyclobutyl]methyl}amino)pyrimidin-5-yl]-N-pyrazol-5-ylcarboxamide] | C (C=10-20 uM)
COc1ncc(-c2cnc(NC[C@]3(c4ncccc4F)C[C@H](F)C3)nc2)c(OC)n1 [[5-(2,4-dimethoxypyrimidin-5-yl)pyrimidin-2-yl]{[3-fluoro-1-(3-fluoro(2-pyridyl))cyclobutyl]methyl}amine] | D (D=>20 uM)
COc1cc(-c2cnc(NC[C@]3(c4ncccc4F)C[C@H](F)C3)nc2)nc(OC)n1 [[5-(2,6-dimethoxypyrimidin-4-yl)pyrimidin-2-yl]{[3-fluoro-1-(3-fluoro(2-pyridyl))cyclobutyl]methyl}amine] | D (D=>20 uM)
Cc1nc(N)ncc1-c1cnc(NC[C@]2(c3ncccc3F)C[C@H](F)C2)nc1 [[5-(2-amino-4-methylpyrimidin-5-yl)pyrimidin-2-yl]{[3-fluoro-1-(3-fluoro(2-pyridyl))cyclobutyl]methyl}amine] | C (C=10-20 uM)
Nc1ncc(F)c(-c2cnc(NC[C@]3(c4ncccc4F)C[C@H](F)C3)nc2)n1 [[5-(2-amino-5-fluoropyrimidin-4-yl)pyrimidin-2-yl]{[3-fluoro-1-(3-fluoro(2-pyridyl))cyclobutyl]methyl}amine] | B (B=1-10 uM)
Cc1cnc(N)nc1-c1cnc(NC[C@]2(c3ncccc3F)C[C@H](F)C2)nc1 [[5-(2-amino-5-methylpyrimidin-4-yl)pyrimidin-2-yl]{[3-fluoro-1-(3-fluoro(2-pyridyl))cyclobutyl]methyl}amine] | D (D=>20 uM)
Nc1nccc(-c2cnc(NC[C@]3(c4ncccc4F)C[C@H](F)C3)nc2)n1 [[5-(2-aminopyrimidin-4-yl)pyrimidin-2-yl]{[3-fluoro-1-(3-fluoro(2-pyridyl))cyclobutyl]methyl)amine] | C (C=10-20 uM)
Nc1ncc(-c2cnc(NC[C@]3(c4ncccc4F)C[C@H](F)C3)nc2)cn1 [[5-(2-aminopyrimidin-5-yl)]pyrimidin-2-yl]{[3-fluoro-1-(3-fluoro(2-pyridyl))cyclobutyl]methyl}amine] | B (B=1-10 uM)

— patent US11369565B2, “Amino-pyrimidine skeletal muscle modulators” (Cytokinetics, Inc., priority 2010, dated 2022)
